Reference: the NIST ThermoML archive (doi:10.1021/je700260f)
Numbers after ± are expanded uncertainties.

Conditions: Liquid, Vibrating tube method

FC(C(F)(F)F)C(F)(F)F [1,1,1,2,3,3,3-heptafluoropropane]
Conditions | mass density [kg/m3]
323.14 K, 26341 kPa | 1449.9 ± 1.6
323.14 K, 26367 kPa | 1450.1 ± 1.6
323.14 K, 26395 kPa | 1450.2 ± 1.6
323.14 K, 26427 kPa | 1450.3 ± 1.6
323.14 K, 26451 kPa | 1450.5 ± 1.6
323.14 K, 26475 kPa | 1450.5 ± 1.6
323.14 K, 26513 kPa | 1450.7 ± 1.6
323.14 K, 26548 kPa | 1450.8 ± 1.6
323.14 K, 26575 kPa | 1450.8 ± 1.6
323.14 K, 26605 kPa | 1451 ± 1.6
323.14 K, 26630 kPa | 1451.2 ± 1.6
323.14 K, 26654 kPa | 1451.3 ± 1.6
323.14 K, 26689 kPa | 1451.4 ± 1.6
323.14 K, 26725 kPa | 1451.6 ± 1.6
323.14 K, 26749 kPa | 1451.6 ± 1.6
323.14 K, 26779 kPa | 1451.8 ± 1.6
323.14 K, 26810 kPa | 1451.9 ± 1.6
323.14 K, 26834 kPa | 1451.9 ± 1.6
323.14 K, 26866 kPa | 1452.2 ± 1.6
323.14 K, 26907 kPa | 1452.2 ± 1.6
323.14 K, 26931 kPa | 1452.3 ± 1.6
323.14 K, 26964 kPa | 1452.5 ± 1.6
323.14 K, 26991 kPa | 1452.7 ± 1.6
323.14 K, 27019 kPa | 1452.7 ± 1.6
323.14 K, 27049 kPa | 1452.9 ± 1.6
323.14 K, 27086 kPa | 1452.9 ± 1.6
323.14 K, 27111 kPa | 1453.1 ± 1.6
323.14 K, 27141 kPa | 1453.2 ± 1.6
323.14 K, 27170 kPa | 1453.4 ± 1.6
323.14 K, 27208 kPa | 1453.4 ± 1.6
323.14 K, 27239 kPa | 1453.6 ± 1.6
323.14 K, 27261 kPa | 1453.7 ± 1.6
323.14 K, 27301 kPa | 1453.9 ± 1.6
323.14 K, 27337 kPa | 1453.9 ± 1.6
323.14 K, 27364 kPa | 1454.2 ± 1.6
323.14 K, 27407 kPa | 1454.4 ± 1.7
323.14 K, 27446 kPa | 1454.5 ± 1.7
323.14 K, 29221 kPa | 1461.5 ± 1.7
323.14 K, 29254 kPa | 1461.6 ± 1.7
323.14 K, 29283 kPa | 1461.7 ± 1.7
323.14 K, 29320 kPa | 1461.9 ± 1.7
323.14 K, 29357 kPa | 1462 ± 1.7
323.14 K, 29386 kPa | 1462.2 ± 1.7
323.14 K, 29420 kPa | 1462.2 ± 1.7
323.14 K, 29450 kPa | 1462.4 ± 1.7
323.14 K, 29481 kPa | 1462.5 ± 1.7
323.14 K, 29512 kPa | 1462.7 ± 1.7
323.14 K, 29551 kPa | 1462.8 ± 1.7
323.14 K, 29581 kPa | 1462.9 ± 1.7
323.14 K, 29617 kPa | 1463.1 ± 1.7
323.14 K, 29647 kPa | 1463.3 ± 1.7
323.14 K, 29673 kPa | 1463.3 ± 1.7
323.14 K, 29712 kPa | 1463.4 ± 1.7
323.14 K, 30912 kPa | 1468 ± 1.7
323.14 K, 30939 kPa | 1468.2 ± 1.7
323.14 K, 30970 kPa | 1468.1 ± 1.7
323.14 K, 31016 kPa | 1468.3 ± 1.7
323.14 K, 31057 kPa | 1468.4 ± 1.7
323.14 K, 31085 kPa | 1468.6 ± 1.7
323.14 K, 31126 kPa | 1468.7 ± 1.7
323.14 K, 31158 kPa | 1468.9 ± 1.7
323.14 K, 31190 kPa | 1468.9 ± 1.7
323.14 K, 31227 kPa | 1469.2 ± 1.7
323.14 K, 31260 kPa | 1469.2 ± 1.7
323.14 K, 31289 kPa | 1469.4 ± 1.7
323.14 K, 31322 kPa | 1469.5 ± 1.7
323.14 K, 31350 kPa | 1469.7 ± 1.7
323.14 K, 31393 kPa | 1469.8 ± 1.7
323.14 K, 31427 kPa | 1469.8 ± 1.7
323.14 K, 31456 kPa | 1469.9 ± 1.7
323.14 K, 31496 kPa | 1470.1 ± 1.7
323.14 K, 31525 kPa | 1470.2 ± 1.7
323.14 K, 31560 kPa | 1470.3 ± 1.7
323.14 K, 31593 kPa | 1470.5 ± 1.7
323.14 K, 31631 kPa | 1470.6 ± 1.7
323.14 K, 31664 kPa | 1470.7 ± 1.7
323.14 K, 31692 kPa | 1470.8 ± 1.7
323.14 K, 31727 kPa | 1470.8 ± 1.7
323.14 K, 31759 kPa | 1471.1 ± 1.7
323.14 K, 31798 kPa | 1471.2 ± 1.7
323.14 K, 31833 kPa | 1471.3 ± 1.7
323.14 K, 31867 kPa | 1471.5 ± 1.7
323.14 K, 31900 kPa | 1471.6 ± 1.7
323.14 K, 31935 kPa | 1471.8 ± 1.7
323.14 K, 31970 kPa | 1471.9 ± 1.7
323.14 K, 32005 kPa | 1472.1 ± 1.7
323.14 K, 32035 kPa | 1472.1 ± 1.7
323.14 K, 32074 kPa | 1472.2 ± 1.7
323.14 K, 32106 kPa | 1472.4 ± 1.7
323.14 K, 32145 kPa | 1472.5 ± 1.7
323.14 K, 32183 kPa | 1472.7 ± 1.7
323.14 K, 32213 kPa | 1472.9 ± 1.7
323.14 K, 32256 kPa | 1472.9 ± 1.7
323.14 K, 32290 kPa | 1473 ± 1.7
323.14 K, 32334 kPa | 1473.2 ± 1.7
323.14 K, 32359 kPa | 1473.2 ± 1.7
323.14 K, 32392 kPa | 1473.5 ± 1.7
323.14 K, 32426 kPa | 1473.5 ± 1.7
323.14 K, 32453 kPa | 1473.6 ± 1.7
323.14 K, 32494 kPa | 1473.7 ± 1.7
323.14 K, 32530 kPa | 1473.9 ± 1.7
323.14 K, 32562 kPa | 1474.1 ± 1.7
323.14 K, 32595 kPa | 1474.2 ± 1.7
323.14 K, 32625 kPa | 1474.2 ± 1.7
323.14 K, 32718 kPa | 1474.5 ± 1.7
323.14 K, 32751 kPa | 1474.7 ± 1.7
323.14 K, 32788 kPa | 1474.8 ± 1.7
323.14 K, 32825 kPa | 1475.1 ± 1.7
323.14 K, 32856 kPa | 1475.1 ± 1.7
323.14 K, 32888 kPa | 1475.2 ± 1.7
323.14 K, 32921 kPa | 1475.3 ± 1.7
323.14 K, 32953 kPa | 1475.5 ± 1.7
323.14 K, 32985 kPa | 1475.4 ± 1.7
323.14 K, 33019 kPa | 1475.7 ± 1.7
323.14 K, 33051 kPa | 1475.7 ± 1.7
323.14 K, 33084 kPa | 1475.8 ± 1.7
323.14 K, 33112 kPa | 1476.1 ± 1.7
323.14 K, 33140 kPa | 1476.1 ± 1.7
323.14 K, 33174 kPa | 1476.3 ± 1.7
323.14 K, 33204 kPa | 1476.4 ± 1.7
323.14 K, 33237 kPa | 1476.4 ± 1.7
323.14 K, 33283 kPa | 1476.6 ± 1.7
323.14 K, 33320 kPa | 1476.7 ± 1.7
323.14 K, 33348 kPa | 1476.8 ± 1.7
323.14 K, 33380 kPa | 1477 ± 1.7
323.14 K, 33409 kPa | 1477.2 ± 1.7
323.14 K, 33451 kPa | 1477.2 ± 1.7
323.14 K, 33480 kPa | 1477.5 ± 1.7
323.14 K, 33527 kPa | 1477.5 ± 1.7
323.14 K, 33556 kPa | 1477.6 ± 1.7
323.14 K, 33594 kPa | 1477.8 ± 1.7
323.14 K, 33624 kPa | 1477.9 ± 1.7
323.14 K, 33659 kPa | 1477.9 ± 1.7
323.14 K, 33689 kPa | 1477.9 ± 1.7
323.14 K, 33733 kPa | 1478.3 ± 1.7
323.14 K, 33772 kPa | 1478.3 ± 1.7
323.14 K, 33801 kPa | 1478.4 ± 1.7
323.14 K, 33844 kPa | 1478.5 ± 1.7
323.14 K, 33873 kPa | 1478.6 ± 1.7
323.14 K, 33912 kPa | 1478.8 ± 1.7
323.14 K, 33947 kPa | 1479 ± 1.7
323.14 K, 33988 kPa | 1479.1 ± 1.7
323.14 K, 34019 kPa | 1479.2 ± 1.7
323.14 K, 34056 kPa | 1479.3 ± 1.7
323.14 K, 34088 kPa | 1479.4 ± 1.7
323.14 K, 34126 kPa | 1479.7 ± 1.7
323.14 K, 34164 kPa | 1479.7 ± 1.7
323.14 K, 34203 kPa | 1479.9 ± 1.7
323.14 K, 34254 kPa | 1480 ± 1.7
323.14 K, 34287 kPa | 1480.1 ± 1.7
323.14 K, 34318 kPa | 1480.4 ± 1.7
323.14 K, 34333 kPa | 1480.4 ± 1.7
323.14 K, 34347 kPa | 1480.4 ± 1.7
323.14 K, 34355 kPa | 1480.4 ± 1.7
323.14 K, 34365 kPa | 1480.4 ± 1.7
323.14 K, 34376 kPa | 1480.5 ± 1.7
323.14 K, 34382 kPa | 1480.5 ± 1.7
323.15 K, 2690 kPa | 1295.1 ± 1.5
323.15 K, 2710 kPa | 1295.4 ± 1.5
323.15 K, 2730 kPa | 1295.6 ± 1.5
323.15 K, 2750 kPa | 1295.9 ± 1.5
323.15 K, 2770 kPa | 1296.1 ± 1.5
323.15 K, 2790 kPa | 1296.3 ± 1.5
323.15 K, 2810 kPa | 1296.6 ± 1.5
323.15 K, 2860 kPa | 1297.2 ± 1.5
323.15 K, 3610 kPa | 1305.8 ± 1.5
323.15 K, 5700 kPa | 1326.8 ± 1.5
323.15 K, 5730 kPa | 1327.1 ± 1.5
323.15 K, 5750 kPa | 1327.2 ± 1.5
323.15 K, 5780 kPa | 1327.6 ± 1.5
323.15 K, 5810 kPa | 1327.8 ± 1.5
323.15 K, 5830 kPa | 1328.1 ± 1.5
323.15 K, 5860 kPa | 1328.3 ± 1.5
323.15 K, 5890 kPa | 1328.7 ± 1.5
323.15 K, 5920 kPa | 1329.1 ± 1.5
323.15 K, 5940 kPa | 1329 ± 1.5
323.15 K, 7941 kPa | 1346.2 ± 1.5
323.15 K, 7982 kPa | 1346.7 ± 1.5
323.15 K, 8005 kPa | 1346.8 ± 1.5
323.15 K, 8337 kPa | 1349.4 ± 1.5
323.15 K, 8351 kPa | 1349.6 ± 1.5
323.15 K, 8369 kPa | 1349.8 ± 1.5
323.15 K, 8474 kPa | 1350.5 ± 1.5
323.15 K, 8495 kPa | 1350.7 ± 1.5
323.15 K, 8516 kPa | 1350.8 ± 1.5
323.15 K, 8532 kPa | 1351 ± 1.5
323.15 K, 8553 kPa | 1351.1 ± 1.5
323.15 K, 8569 kPa | 1351.3 ± 1.5
323.15 K, 8597 kPa | 1351.5 ± 1.5
323.15 K, 8616 kPa | 1351.8 ± 1.5
323.15 K, 8637 kPa | 1351.8 ± 1.5
323.15 K, 8653 kPa | 1351.9 ± 1.5
323.15 K, 8674 kPa | 1352.2 ± 1.5
323.15 K, 8690 kPa | 1352.3 ± 1.5
323.15 K, 8713 kPa | 1352.5 ± 1.5
323.15 K, 8731 kPa | 1352.6 ± 1.5
323.15 K, 8753 kPa | 1352.6 ± 1.5
323.15 K, 8776 kPa | 1352.9 ± 1.5
323.15 K, 8792 kPa | 1353.1 ± 1.5
323.15 K, 8817 kPa | 1353.1 ± 1.5
323.15 K, 8836 kPa | 1353.4 ± 1.5
323.15 K, 8858 kPa | 1353.5 ± 1.5
323.15 K, 8877 kPa | 1353.6 ± 1.5
323.15 K, 8898 kPa | 1353.8 ± 1.5
323.15 K, 9724 kPa | 1360 ± 1.5
